Laboratory results as given in paper PMC11500415, “Chemical inhibition of stomatal differentiation by perturbation of the master-regulatory bHLH heterodimer via an ACT-Like domain” (Nature Communications, 2024).
Where “and” joins values, the source holds several entries; their conditions need not be identical. Identical values can stand only once.

Assays:
Type in all cases: cell-based
SCRM-SPCH heterodimer = molecular target: T1, SCRM-SPCH heterodimer (Arabidopsis thaliana, UniProt Q700C7); test: Y2H growth and quantitative α-galactosidase assay; settings: yeast SPCH∆N+SCRM, media -WLH, replicates #1-#3
T1 construct: truncated SPCH and FAMA proteins lacking their N-terminal domain were used in yeast; expressed in transfected cells; host or cells: yeast strain AH109
T1 sequence (Q700C7 98-364 limits assumed): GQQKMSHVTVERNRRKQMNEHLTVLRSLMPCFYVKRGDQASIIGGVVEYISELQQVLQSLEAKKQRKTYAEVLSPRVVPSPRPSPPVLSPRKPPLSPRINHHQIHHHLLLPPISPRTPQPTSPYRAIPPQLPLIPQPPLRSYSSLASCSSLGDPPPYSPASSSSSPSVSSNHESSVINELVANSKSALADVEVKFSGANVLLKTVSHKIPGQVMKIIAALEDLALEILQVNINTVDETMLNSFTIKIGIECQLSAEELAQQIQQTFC
Description: (§1) Y2H assays were performed using the Matchmaker^TM Two-Hybrid System (Clontech). Bait (pGBKT7) and prey (pGADT7) constructs were co-transformed into the yeast strain AH109 using Frozen-EZ Yeast Transformation II Kit (Zymo Research, T2001). The resulting transformants were spotted on SD ( − Leu, −Trp) and SD ( − Trp, −Leu, −His) selection media containing different concentrations of 3-amino-1,2,4-triazole (Sigma, A8056) as previously reported. Quantitative α-galactosidase assay was also performed according to manufactural instruction (Clontech). Briefly, the transformants were incubated in 2 ml SD medium with 0, 10, 50 100 μM Stomidazolone (3) or SIM3* (7) with rotary shake (220 rpm) at 30 °C overnight. The cultured media containing yeast were transferred to microtubes and centrifuged to obtain the supernatant. The colorimetric assay was performed by incubating 8 μL of supernatant with 24 μL Assay Buffer that contains 0.5 M sodium acetate (pH 4.5) (Nakalai tesque, 31137-25): 100 mM p-nitrophenyl α-D-Galactopyranoside Solution (Sigma N0877) = 2:1 (v/v) at 30 °C for 60 min, then terminated by adding 960 μL 1X Stop Solution (0.1 M sodium carbonate, Fujifilm Wako 195-01582). After OD410 was recorded, α-galactosidase units were calculated according to the protocol (Clontech, P3024-1).

SCRM-MUTE heterodimer = molecular target: T2, SCRM-MUTE heterodimer (Arabidopsis thaliana, UniProt Q9M8K6); test: Y2H growth and quantitative α-galactosidase assay; settings: yeast MUTE+SCRM, media -WLH, replicates #1-#3
T2 construct: expressed in transfected cells; host or cells: yeast strain AH109
T2 sequence (Q9M8K6 1-202): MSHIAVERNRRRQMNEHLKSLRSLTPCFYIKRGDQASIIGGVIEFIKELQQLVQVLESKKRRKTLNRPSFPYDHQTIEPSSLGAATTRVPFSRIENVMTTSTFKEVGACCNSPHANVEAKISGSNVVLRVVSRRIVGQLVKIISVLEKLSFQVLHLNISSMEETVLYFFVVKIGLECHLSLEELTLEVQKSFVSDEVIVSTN
Description: as §1

SCRM-FAMA heterodimer = molecular target: T3, SCRM-FAMA heterodimer (Arabidopsis thaliana, UniProt Q56YJ8); test: Y2H growth and quantitative α-galactosidase assay; settings: yeast FAMA∆N+SCRM, media -WLH, replicates #1-#3
T3 construct: truncated SPCH and FAMA proteins lacking their N-terminal domain were used in yeast; expressed in transfected cells; host or cells: yeast strain AH109
T3 sequence (Q56YJ8 190-414, one chain of several): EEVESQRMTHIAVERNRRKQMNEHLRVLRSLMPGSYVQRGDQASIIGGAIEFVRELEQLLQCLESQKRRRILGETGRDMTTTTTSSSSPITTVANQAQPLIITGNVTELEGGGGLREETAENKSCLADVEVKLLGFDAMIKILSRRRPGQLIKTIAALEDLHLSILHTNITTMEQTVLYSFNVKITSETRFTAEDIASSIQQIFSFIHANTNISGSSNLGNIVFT
Description: as §1

MUTE+AD (control yeast) = molecular target: T4, MUTE+AD (control yeast) (Arabidopsis thaliana, UniProt Q9M8K6); test: Y2H quantitative α-galactosidase assay, control yeast MUTE+AD; settings: media -WL, replicates #1-#3
T4 construct: expressed in transfected cells; host or cells: yeast strain AH109
T4 sequence (Q9M8K6 1-202): T2 sequence (Q9M8K6 1-202)
Text: Supplement 41467_2024_53214_MOESM7_ESM.xlsx, sheet "Fig.S5" | column: Meristemoid

DB+SCRM (control yeast) = molecular target: T5, DB+SCRM (control yeast) (Arabidopsis thaliana, UniProt Q9LSE2); test: Y2H quantitative α-galactosidase assay, control yeast DB+SCRM; settings: media -WL, replicates #1-#3
T5 construct: expressed in transfected cells; host or cells: yeast strain AH109
T5 sequence (Q9LSE2 1-494): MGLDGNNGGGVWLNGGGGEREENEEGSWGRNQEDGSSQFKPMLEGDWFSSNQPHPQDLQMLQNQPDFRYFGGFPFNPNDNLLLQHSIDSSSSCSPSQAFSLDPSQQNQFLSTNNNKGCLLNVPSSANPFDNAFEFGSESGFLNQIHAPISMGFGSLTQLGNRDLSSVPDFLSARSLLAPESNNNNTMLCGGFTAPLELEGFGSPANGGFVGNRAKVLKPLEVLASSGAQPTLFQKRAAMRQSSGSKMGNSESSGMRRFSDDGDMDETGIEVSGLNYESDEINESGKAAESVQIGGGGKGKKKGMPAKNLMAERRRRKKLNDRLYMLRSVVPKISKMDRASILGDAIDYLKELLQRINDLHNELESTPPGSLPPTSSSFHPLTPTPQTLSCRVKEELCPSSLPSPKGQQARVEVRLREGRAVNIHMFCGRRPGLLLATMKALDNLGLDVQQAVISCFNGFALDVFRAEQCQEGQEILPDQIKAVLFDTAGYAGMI

`Cc1nc(-c2ccccc2)c(NS(=O)(=O)c2ccccc2)o1` [SIM3*] was tested, and the a-galactosidase (SCRM-SPCH heterodimer; 10 µM) was 4.934 milliunits /(ml x cell) and 5.0596 milliunits /(ml x cell) and 4.687 milliunits /(ml x cell), the a-galactosidase (SCRM-SPCH heterodimer; 50 µM) was 4.693 milliunits /(ml x cell) and 5.268 milliunits /(ml x cell) and 5.059 milliunits /(ml x cell) and the a-galactosidase (SCRM-SPCH heterodimer; 100 µM) was 6.071 milliunits /(ml x cell) and 5.524 milliunits /(ml x cell) and 5.145 milliunits /(ml x cell). The a-galactosidase (SCRM-MUTE heterodimer; 10 µM) was 6.318 milliunits /(ml x cell) and 6.221 milliunits /(ml x cell) and 6.24 milliunits /(ml x cell), the a-galactosidase (SCRM-MUTE heterodimer; 50 µM) was 7.176 milliunits /(ml x cell) and 6.898 milliunits /(ml x cell) and 6.187 milliunits /(ml x cell) and the a-galactosidase (SCRM-MUTE heterodimer; 100 µM) was 6.801 milliunits /(ml x cell) and 6.285 milliunits /(ml x cell) and 6.027 milliunits /(ml x cell). The a-galactosidase (SCRM-FAMA heterodimer; 10 µM) was 9.596 milliunits /(ml x cell) and 8.612 milliunits /(ml x cell) and 10.2528 milliunits /(ml x cell), the a-galactosidase (SCRM-FAMA heterodimer; 50 µM) was 8.883 milliunits /(ml x cell) and 8.135 milliunits /(ml x cell) and 9.605 milliunits /(ml x cell) and the a-galactosidase (SCRM-FAMA heterodimer; 100 µM) was 8.9516 milliunits /(ml x cell) and 9.181 milliunits /(ml x cell) and 8.943 milliunits /(ml x cell). For the same compound, the a-galactosidase (MUTE+AD (control yeast); 10 µM) was 0.05913 milliunits /(ml x cell) and 0.1128 milliunits /(ml x cell) and 0.06646 milliunits /(ml x cell), the a-galactosidase (MUTE+AD (control yeast); 50 µM) was 0.06252 milliunits /(ml x cell) and 0.06546 milliunits /(ml x cell) and 0.1442 milliunits /(ml x cell) and the a-galactosidase (MUTE+AD (control yeast); 100 µM) was 0.1449 milliunits /(ml x cell) and 0.1698 milliunits /(ml x cell) and 0.1689 milliunits /(ml x cell). The a-galactosidase (DB+SCRM (control yeast); 10 µM) was 0.04682 milliunits /(ml x cell) and 0.1024 milliunits /(ml x cell) and 0.1038 milliunits /(ml x cell), the a-galactosidase (DB+SCRM (control yeast); 50 µM) was 0.1114 milliunits /(ml x cell) and 0.04747 milliunits /(ml x cell) and 0.1243 milliunits /(ml x cell) and the a-galactosidase (DB+SCRM (control yeast); 100 µM) was 0.1293 milliunits /(ml x cell) and 0.1919 milliunits /(ml x cell) and 0.06561 milliunits /(ml x cell).
